Experimental findings from patent US20250171432A1, “COMPOUNDS AND METHODS OF USE” (Tango Therapeutics, Inc., priority 2022, published 2025) are described below.

Type in all cases: cell-based
The subject of assay [1] is SDMA (PRMT5 activity) in HAP1 MTAP-intact cell line. Briefly: SDMA in-cell western assay, HAP1 MTAP-intact.
The test system of assay [2] is SDMA (PRMT5 activity) in HAP1 MTAP-deleted cell line. The assay is described as follows: SDMA in-cell western assay, HAP1 MTAP-deleted.
Assay [3] deals with HAP1 MTAP-deleted cell line. Briefly: Viability assay (CellTiter-Glo), HAP1 MTAP-deleted. The conditions noted are these: Homo sapiens, 168 h, HAP1 MTAP-deleted cells, 7 days. In a few lines:
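HAP1 MTAP-deleted and MTAP-intact cells seeded, then dosed next day (n=3, 0.2% DMSO) and grown 7 days. Viability by CellTiter-Glo luminescence, expressed as % of DMSO control per cell line.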

Where [4] appears, read: Homo sapiens, HAP1, 24 h, SDMA in-cell western, HAP1 MTAP-intact cells, 24 hours compound incubation.
The mark [5] stands for this setting: Homo sapiens, SDMA in-cell western, HAP1 MTAP-deleted cells, 24 hours compound incubation.
The mark [6] stands for this setting: ratio of SDMA IC50 in HAP1 MTAP-intact to HAP1 MTAP-deleted cell line.

The structures appear in SMILES notation. Read-outs that look alike come from different tables or passages of the source. Some results are limits rather than exact numbers.

As to `COc1ncc(NC(=O)C(=O)N2C[C@@H](C)CC[C@@H]2c2ccc3sc([C@@H]4CCN(C)C[C@@H]4C)nc3c2)cc1C(N)=O` (relative stereo) [Compound 12, 2-methoxy-5-[[2-oxo-2-[(2R,5S)-5-methyl-2-[2-[rel-(3R,4R)-1,3-dimethyl-4-piperidyl]-1,3-benzothiazol-5-yl]-1-piperidyl]acetyl]amino]pyridine-3-carboxamide], the values for the IC50 in assay [1] (setting [4]), in assay [2] (setting [5]) and in assay [3] were over 50 nM, under 5 nM and under 100 nM, respectively. The compound further showed an IC90 in assay [2] (setting [5]) of under 75 nM. Moreover, in assay [2] (setting [6]), the “Hap1 MTAP intact/deleted ratio” value is “A (“A” indicates an IC50 ratio greater than or equal to 30 fold)”.
With `CCc1cc(NC(=O)C(=O)N2C[C@@H](C)CC[C@@H]2c2ccc3sc([C@H]4CCN(C)C[C@@H]4OC)nc3c2)cnc1N` (single isomer, unassigned) [Compound 90], the half-maximal inhibitory concentration (IC50) was over 50 nM in assay [1] (setting [4]), under 5 nM in assay [2] (setting [5]) and under 100 nM in assay [3]. In assay [2] (setting [5]), this compound yielded a 90% effect concentration (IC90) of under 75 nM. In addition, the “Hap1 MTAP intact/deleted ratio” value in assay [2] (setting [6]) was “A (“A” indicates an IC50 ratio greater than or equal to 30 fold)”.
The corresponding values for `CCc1cc(NC(=O)C(=O)N2C[C@@H](C)CC[C@@H]2c2ccc3sc([C@H]4CN(C)C(C)(C)C4)nc3c2)cnc1N` (single isomer, unassigned) [Compound 27] are 5 to 50 nM, under 5 nM, under 100 nM, under 75 nM and “B (“B” indicates an IC50 ratio greater than or equal to 15 fold but lower than 30 fold)”.
Take `COc1ncc(NC(=O)C(=O)N2C[C@@H](C)CC[C@@H]2c2cccc(OC[C@H](C)N(C)C)c2)cc1C(N)=O` [Compound 37, 5-(2-((2R,5S)-2-(3-((S)-2-(dimethylamino)propoxy)phenyl)-5-methylpiperidin-1-yl)-2-oxoacetamido)-2-methoxynicotinamide]: the figures for the IC50 in assay [1] (setting [4]), in assay [2] (setting [5]) and in assay [3] were over 50 nM, 5 to 50 nM and under 100 nM, respectively. The compound further gave an IC90 in assay [2] (setting [5]) of 75 to 125 nM. Further, the “Hap1 MTAP intact/deleted ratio” value in assay [2] (setting [6]) is given as “A (“A” indicates an IC50 ratio greater than or equal to 30 fold)”.
The corresponding values for `COc1ncc(NC(=O)C(=O)N2C[C@@H](C)CC[C@@H]2c2ccc3sc([C@@H]4CN(C)CC4(C)C)nc3c2)cc1C(N)=O` (single isomer, unassigned) [Compound 74] are 5 to 50 nM, under 5 nM, under 100 nM, under 75 nM and “B (“B” indicates an IC50 ratio greater than or equal to 15 fold but lower than 30 fold)”.
In the case of `COc1ncc(NC(=O)C(=O)N2CCCC[C@@H]2c2ccc3sc(C4CCN(C)CC4)nc3c2)cc1C(N)=O` [Compound 29, 2-methoxy-5-(2-(2-(2-(1-methylpiperidin-4-yl)benzo[d]thiazol-5-yl)piperidin-1-yl)-2-oxoacetamido)nicotinamide], the results for the IC50 in assay [1] (setting [4]), in assay [2] (setting [5]) and in assay [3] were over 50 nM, 5 to 50 nM and 100 to 1000 nM, respectively. The 90% effect concentration (IC90) in assay [2] (setting [5]) was over 125 nM. In addition, in assay [2] (setting [6]), the “Hap1 MTAP intact/deleted ratio” value was “A (“A” indicates an IC50 ratio greater than or equal to 30 fold)”.
`COc1ncc(NC(=O)C(=O)N2C[C@@H](C)CC[C@@H]2c2ccc3sc(C45CCC(CC4)N(C)C5)nc3c2)cc1C(N)=O` [Compound 99, 2-methoxy-5-(2-((2R,5S)-5-methyl-2-(2-(2-methyl-2-azabicyclo[2.2.2]octan-4-yl)benzo[d]thiazol-5-yl)piperidin-1-yl)-2-oxoacetamido)nicotinamide]: the IC50 was over 50 nM in assay [1] (setting [4]), under 5 nM in assay [2] (setting [5]) and under 100 nM in assay [3]. This compound gave an IC90 in assay [2] (setting [5]) of under 75 nM. The “Hap1 MTAP intact/deleted ratio” value in assay [2] (setting [6]) is listed as “A (“A” indicates an IC50 ratio greater than or equal to 30 fold)”.
The corresponding values for `CCc1cc(NC(=O)C(=O)N2C[C@@H](C)CC[C@@H]2c2ccc3sc([C@@H]4C[C@@H](C)N(C)C4)nc3c2)cnc1N` (mixture of isomers) [Compound 4, N-(6-amino-5-ethyl-3-pyridyl)-2-oxo-2-[(2R,5S)-5-methyl-2-[2-[rac-(3R,5R)-1,5-dimethylpyrrolidin-3-yl]-1,3-benzothiazol-5-yl]-1-piperidyl]acetamide] are over 50 nM, under 5 nM, under 100 nM, under 75 nM and “A (“A” indicates an IC50 ratio greater than or equal to 30 fold)”.
Turning to `COc1ncc(NC(=O)C(=O)N2C[C@@H](C)CC[C@@H]2c2ccc3sc([C@@H](C)CN4CCCC4)nc3c2)cc1C(N)=O` [Compound 62, 2-methoxy-5-[[2-oxo-2-[(2R,5S)-5-methyl-2-[2-[(1S)-1-methyl-2-pyrrolidin-1-yl-ethyl]-1,3-benzothiazol-5-yl]-1-piperidyl]acetyl]amino]pyridine-3-carboxamide], the IC50 was over 50 nM in assay [1] (setting [4]), under 5 nM in assay [2] (setting [5]) and under 100 nM in assay [3]. In addition, in assay [2] (setting [5]), the IC90 is under 75 nM. Moreover, the “Hap1 MTAP intact/deleted ratio” value in assay [2] (setting [6]) is given as “A (“A” indicates an IC50 ratio greater than or equal to 30 fold)”.
Taken in the same sequence, the figures for `COc1ncc(NC(=O)C(=O)N2C[C@@H](C)CC[C@@H]2c2ccc3sc([C@H](C)CN(C)C)nc3c2)cc1C(N)=O` [Compound 11, 2-methoxy-5-[[2-oxo-2-[(2R,5S)-5-methyl-2-[2-[(^1S)-2-(dimethylamino)-1-methyl-ethyl]-1,3-benzothiazol-5-yl]-1-piperidyl]acetyl]amino]pyridine-3-carboxamide] were over 50 nM, under 5 nM, under 100 nM, under 75 nM and “A (“A” indicates an IC50 ratio greater than or equal to 30 fold)”.
On to `CCc1cc(NC(=O)C(=O)N2C[C@@H](C)CC[C@@H]2c2ccc3cn(C4CCOCC4)nc3c2)cnc1N` [Compound 17, N-(6-amino-5-ethyl-3-pyridyl)-2-oxo-2-[(2R,5S)-5-methyl-2-(2-tetrahydropyran-4-ylindazol-6-yl)-1-piperidyl]acetamide], for which the IC50 in assay [1] (setting [4]) was over 50 nM; in assay [2] (setting [5]) it was 5 to 50 nM; in assay [3], under 100 nM. The IC90 in assay [2] (setting [5]) is under 75 nM. Further, the “Hap1 MTAP intact/deleted ratio” value in assay [2] (setting [6]) was “A (“A” indicates an IC50 ratio greater than or equal to 30 fold)”.
In the case of `CCc1cc(NC(=O)C(=O)N2C[C@@H](C)CC[C@@H]2c2ccc3cn([C@H]4CCCN(C)C4)nc3c2)cnc1N` [Compound 104], the IC50 in assay [1] (setting [4]) is over 50 nM; in assay [2] (setting [5]) it was under 5 nM; in assay [3] it was under 100 nM. Further, the IC90 in assay [2] (setting [5]) was under 75 nM. The “Hap1 MTAP intact/deleted ratio” value in assay [2] (setting [6]) is on record as “B (“B” indicates an IC50 ratio greater than or equal to 15 fold but lower than 30 fold)”.
With `Cc1cc2cc(C(=O)N3C[C@@H](C)CC[C@@H]3c3ccc4sc(C5CCN(C)CC5)nc4c3)ccc2nc1N` [Compound 59, (2-amino-3-methylquinolin-6-yl)((2R,5S)-5-methyl-2-(2-(1-methylpiperidin-4-yl)benzo[d]thiazol-5-yl)piperidin-1-yl)methanone], the IC50 in assay [1] is over 50 nM; in assay [2] it was under 5 nM; in assay [3] it was under 100 nM. Moreover, in assay [2], the “Hap1 MTAP intact/deleted ratio” value is “A (key: “A” indicates an IC50 ratio greater than or equal to 30 fold; “B” indicates an IC50 ratio greater than or equal to 15 fold but lower than 30 fold; “C” indicates an IC50 ratio of less than 15 fold)”. The same compound gave an IC90 in assay [2] of under 75 nM.
In the case of `CCc1cc(NC(=O)C(=O)N2C[C@@H](C)CC[C@@H]2c2ccc3sc([C@@H]4CN(C)C[C@H]4C)nc3c2)cnc1N` (mixture of isomers) [Compound 10, N-(6-amino-5-ethylpyridin-3-yl)-2-((2R,5S)-2-(2-(rac-(3S,4S)-1,4-dimethylpyrrolidin-3-yl)benzo[d]thiazol-5-yl)-5-methylpiperidin-1-yl)-2-oxoacetamide], the IC50 in assay [1] (setting [4]) was over 50 nM; in assay [2] (setting [5]), under 5 nM; in assay [3] it was under 100 nM. Also, the 90% effect concentration (IC90) in assay [2] (setting [5]) is under 75 nM. The “Hap1 MTAP intact/deleted ratio” value in assay [2] (setting [6]) was “A (“A” indicates an IC50 ratio greater than or equal to 30 fold)”.
As to `CCc1cc(NC(=O)C(=O)N2C[C@@H](C)CC[C@@H]2c2ccc3sc(C[C@H]4CCN(C)C[C@@H]4C)nc3c2)cnc1N` (racemic) [Compound 18, N-(6-amino-5-ethylpyridin-3-yl)-2-((2R,5S)-2-(2-((1,3-dimethylpiperidin-4-yl)methyl)benzo[d]thiazol-5-yl)-5-methylpiperidin-1-yl)-2-oxoacetamide], the IC50 in assay [1] (setting [4]) is 5 to 50 nM; in assay [2] (setting [5]), under 5 nM; in assay [3] it was under 100 nM. This compound also gave an IC90 in assay [2] (setting [5]) of under 75 nM. Besides, in assay [2] (setting [6]), the “Hap1 MTAP intact/deleted ratio” value is given as “A (“A” indicates an IC50 ratio greater than or equal to 30 fold)”.
The corresponding values for `CCc1cc(NC(=O)C(=O)N2C[C@@H](C)CC[C@@H]2c2cccc(OC3CCN(C)C3)c2)cnc1N` (mixture of isomers) [Compound 39, N-(6-amino-5-ethylpyridin-3-yl)-2-((2R,5S)-5-methyl-2-(3-((1-methylpyrrolidin-3-yl)oxy)phenyl)piperidin-1-yl)-2-oxoacetamide] are over 50 nM, 5 to 50 nM, under 100 nM, 75 to 125 nM and “A (“A” indicates an IC50 ratio greater than or equal to 30 fold)”.
